Test results taken from ChEMBL document CHEMBL4602636, “Synthesis and in vitro antitumor evaluation of honokiol derivatives” (Bioorg Med Chem Lett, 2020).
pIC50: −log10 of the molar value. Activity calls are given as the source filed them. No cut-off for these calls is given here.

Key:
MCF7 = assay: Antiproliferative activity against human MCF7 cells assessed as growth inhibition after 72 hrs by MTT assay; assay type: functional, cell-based; details: MCF7, 72 h
CNE2Z = assay: Antiproliferative activity against human CNE2Z cells assessed as growth inhibition after 72 hrs by MTT assay; assay type: functional, cell-based
I10 [1] = assay: Antiproliferative activity against mouse I10 cells assessed as growth inhibition after 72 hrs by MTT assay; assay type: functional, cell-based; details: I10, 72 h
I10 [2] = assay: Antiproliferative activity against mouse I10 cells at 2.5 to 20 uM by MTT assay; assay type: functional, cell-based; details: TDE = time-dependent effect
I10 [3] = assay: Antiproliferative activity against mouse I10 cells after 24 to 72 hrs by MTT assay; assay type: functional, cell-based
I10 [4] = assay: Antiproliferative activity against mouse I10 cells at 20 uM after 24 to 72 hrs by MTT assay relative to control; assay type: functional
I10 [5] = assay: Inhibition of cell migration in mouse I10 cells at 10 uM after 24 hrs under hypoxia condition by scratch wound healing assay; assay type: functional, cell-based
I10 [6] = assay: Antiinvasive activity against mouse I10 cells assessed as reduction in number of invaded cells at 2.5 uM after 36 hrs under hypoxia condition by crystal violet staining based transwell assay; assay type: functional, cell-based
I10 [7] = assay: Inhibition of cell migration in mouse I10 cells after 24 hrs under hypoxia condition by scratch wound healing assay; assay type: functional, cell-based
I10 [8] = assay: Antiinvasive activity against mouse I10 cells incubated for 36 hrs under hypoxia condition by crystal violet staining based transwell assay; assay type: functional, cell-based
I10 [9] = assay: Downregulation of HIF1alpha expression in mouse I10 cells at 20 uM after 24 hrs Western blot analysis; assay type: functional, cell-based
I10 [10] = assay: Downregulation of MMP-2 expression in mouse I10 cells at 20 uM after 24 hrs Western blot analysis; assay type: functional, cell-based
I10 [11] = assay: Downregulation of MMP-9 expression in mouse I10 cells at 20 uM after 24 hrs Western blot analysis; assay type: functional, cell-based

| SMILES | pIC50 (MCF7) | pIC50 (CNE2Z) | pIC50 (I10 [1]) | other results |
| --- | --- | --- | --- | --- |
| C=CCc1ccc(OCc2ccc(Cl)cc2Cl)c(-c2ccc(OCc3ccc(Cl)cc3Cl)c(CC=C)c2)c1 | < 4.30 | < 4.30 | < 4.30 | – |
| C=CCc1ccc(O)c(-c2ccc(OCC)c(CC=C)c2)c1 | 4.58 | 4.62 | 4.67 | – |
| C=CCc1ccc(OCc2c(Cl)cccc2Cl)c(-c2ccc(OCc3c(Cl)cccc3Cl)c(CC=C)c2)c1 | < 4.30 | < 4.30 | < 4.30 | – |
| C=CCc1ccc(OCc2ccc(Cl)c(Cl)c2)c(-c2ccc(O)c(CC=C)c2)c1 | 4.76 | 4.85 | 4.91 | – |
| C=CCc1ccc(O)c(-c2ccc(OCc3ccc(Cl)c(Cl)c3)c(CC=C)c2)c1 | 4.81 | 4.75 | 4.91 | – |
| C=CCc1ccc(OCc2c(Cl)cccc2Cl)c(-c2ccc(O)c(CC=C)c2)c1 | 4.71 | 4.70 | 4.77 | – |
| C=CCc1ccc(OC)c(-c2ccc(OC)c(CC=C)c2)c1 | < 4.30 | < 4.30 | < 4.30 | – |
| C=CCc1ccc(OCc2ccccc2)c(-c2ccc(O)c(CC=C)c2)c1 | 4.65 | 4.62 | 4.66 | – |
| C=CCc1ccc(O)c(-c2ccc(O)c(CC=C)c2)c1 [HONOKIOL] | 4.38 | 4.50 | 4.51 | – |
| C=CCc1ccc(OCC)c(-c2ccc(O)c(CC=C)c2)c1 | 4.70 | 4.69 | 4.61 | – |
| C=CCc1ccc(O)c(-c2ccc(OCc3ccccc3)c(CC=C)c2)c1 | 4.64 | 4.52 | 4.53 | – |
| C=CCc1ccc(OCc2ccc(Cl)c(Cl)c2)c(-c2ccc(OCc3ccc(Cl)c(Cl)c3)c(CC=C)c2)c1 | < 4.30 | < 4.30 | < 4.30 | – |
| C=CCc1ccc(OCc2ccc(Cl)cc2Cl)c(-c2ccc(O)c(CC=C)c2)c1 | 4.56 | 4.62 | 4.68 | – |
| C=CCc1ccc(OCc2ccccc2)c(-c2ccc(OCc3ccccc3)c(CC=C)c2)c1 | < 4.30 | < 4.30 | < 4.30 | – |
| C=CCc1ccc(OC)c(-c2ccc(O)c(CC=C)c2)c1 | 4.43 | 4.52 | 4.42 | – |
| C=CCc1ccc(O)c(-c2ccc(OCc3ccc(Cl)cc3Cl)c(CC=C)c2)c1 | 4.83 | 4.95 | 4.98 | Activity (I10 [2]): Tde; Activity (I10 [3]): Dose-dependent effect; Activity (I10 [4]): 100%; inhibition (I10 [5]): Active; Activity (I10 [6]): Active; inhibition (I10 [7]): Dose-dependent effect; Activity (I10 [8]): Dose-dependent effect; Activity (I10 [9]): Active; Activity (I10 [10]): Active; Activity (I10 [11]): Active |
| C=CCc1ccc(O)c(-c2ccc(OCc3c(Cl)cccc3Cl)c(CC=C)c2)c1 | 4.94 | 4.78 | 4.78 | – |
| C=CCc1ccc(O)c(-c2ccc(OC)c(CC=C)c2)c1 [METHYLHONOKIOL] | 4.61 | 4.59 | 4.58 | – |
| C=CCc1ccc(OCC)c(-c2ccc(OCC)c(CC=C)c2)c1 | < 4.30 | < 4.30 | < 4.30 | – |
